Values belong to the molecule of their own block, whether it stands above or below them. Calls of active or inactive are those of the source. The rule behind the calls is not given here.
How the values were obtained:
[1] = target: Neutrophil elastase (Mus musculus, UniProt Q3UP87); experiment: ELANE inhibitor assay (mouse)
[2] = target: Myeloblastin (Homo sapiens, UniProt P24158); experiment: PRTN3 inhibition assay
[3] = target: Cathepsin G (Homo sapiens, UniProt P08311); experiment: CTSG inhibition assay
Chain of Cathepsin G (P08311 whole entry): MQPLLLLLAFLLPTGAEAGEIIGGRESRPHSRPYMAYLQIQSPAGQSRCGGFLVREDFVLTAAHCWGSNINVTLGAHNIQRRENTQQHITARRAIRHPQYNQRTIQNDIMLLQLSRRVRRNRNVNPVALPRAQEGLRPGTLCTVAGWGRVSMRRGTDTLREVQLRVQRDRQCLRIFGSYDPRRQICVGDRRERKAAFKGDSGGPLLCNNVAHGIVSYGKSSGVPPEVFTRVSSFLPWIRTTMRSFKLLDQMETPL

[4] = target: 5-hydroxytryptamine receptor 6 (Homo sapiens) (UniProt P50406); experiment: Activity against 5HT6/H in the Eurofins SafetyScreen44 (BI) by Others (Old_Cerep_3); conditions: Compound concentration 10.0 uM
[5] = target: Adenosine receptor A1 (Homo sapiens) (UniProt P30542); experiment: A1 Eurofins-Cerep binding assay; design: ligand concentration 1 nM
Chain of Adenosine receptor A1 (Homo sapiens) (P30542 whole entry): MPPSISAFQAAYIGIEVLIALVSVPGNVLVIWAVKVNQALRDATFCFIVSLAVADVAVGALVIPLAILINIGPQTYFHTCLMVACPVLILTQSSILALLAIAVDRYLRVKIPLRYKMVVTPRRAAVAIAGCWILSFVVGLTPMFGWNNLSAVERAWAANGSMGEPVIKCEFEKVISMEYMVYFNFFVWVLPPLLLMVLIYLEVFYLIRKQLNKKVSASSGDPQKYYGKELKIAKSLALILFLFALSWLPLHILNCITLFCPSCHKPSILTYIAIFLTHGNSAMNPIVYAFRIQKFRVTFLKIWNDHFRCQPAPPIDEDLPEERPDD

[6] = target: Adenosine receptor A3 (Homo sapiens) (UniProt P0DMS8); experiment: A3 Eurofins-Cerep binding assay; design: ligand concentration 0.15 nM
Chain of Adenosine receptor A3 (Homo sapiens) (P0DMS8 whole entry): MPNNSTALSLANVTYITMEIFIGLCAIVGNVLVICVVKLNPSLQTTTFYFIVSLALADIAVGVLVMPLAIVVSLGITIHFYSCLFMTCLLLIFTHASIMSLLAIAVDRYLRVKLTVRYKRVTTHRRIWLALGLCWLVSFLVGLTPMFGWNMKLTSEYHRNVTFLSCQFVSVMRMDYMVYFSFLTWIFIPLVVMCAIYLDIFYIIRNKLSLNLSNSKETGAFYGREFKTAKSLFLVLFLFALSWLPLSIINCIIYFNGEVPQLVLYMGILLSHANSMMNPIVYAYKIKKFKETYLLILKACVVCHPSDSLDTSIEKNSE

[7] = target: Adrenergic receptor alpha-1 (Rattus norvegicus) (UniProt P15823+P23944+P43140); experiment: Inhibitor of ALPHA1/NS/R in the Eurofins SafetyScreen44 (BI) by Radioactive Assay (Old_Cerep_5); format: protein assay
[8] = target: Adrenergic receptor alpha-2 (Rattus norvegicus) (UniProt P22086+P19328+P22909); experiment: Inhibitor of ALPHA2/NS/R in the Eurofins SafetyScreen44 (BI) by Radioactive Assay (Old_Cerep_6); format: protein assay
[9] = target: Muscarinic acetylcholine receptor M4 (Homo sapiens) (UniProt P08173); experiment: M4 Eurofins-Cerep binding assay; conditions: Compound concentration 10.0 uM
Chain of Muscarinic acetylcholine receptor M4 (Homo sapiens) (P08173 whole entry): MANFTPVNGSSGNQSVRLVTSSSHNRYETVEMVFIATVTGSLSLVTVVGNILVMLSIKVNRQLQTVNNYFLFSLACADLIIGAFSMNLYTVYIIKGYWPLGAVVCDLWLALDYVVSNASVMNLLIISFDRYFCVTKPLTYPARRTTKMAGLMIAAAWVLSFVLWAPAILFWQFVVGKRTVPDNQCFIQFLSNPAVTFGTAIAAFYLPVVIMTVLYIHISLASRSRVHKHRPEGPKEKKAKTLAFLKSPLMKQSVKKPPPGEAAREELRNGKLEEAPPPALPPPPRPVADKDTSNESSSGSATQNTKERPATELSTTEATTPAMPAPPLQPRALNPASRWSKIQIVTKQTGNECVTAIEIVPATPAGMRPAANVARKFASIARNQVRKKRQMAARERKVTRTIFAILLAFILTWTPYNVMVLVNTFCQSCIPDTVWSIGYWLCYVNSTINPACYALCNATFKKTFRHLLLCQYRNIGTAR

[10] = target: Melanocortin receptor 4 (Homo sapiens) (UniProt P32245); experiment: MC4 Eurofins-Cerep binding assay; design: ligand concentration 0.05 nM; conditions: Compound concentration 10.0 uM
[11] = target: Melatonin receptor type 1A (Homo sapiens) (UniProt P48039); experiment: MT1 (ML1A) Eurofins-Cerep binding assay; design: ligand concentration 0.01 nM; conditions: Compound concentration 10.0 uM
[12] = target: Substance-P receptor (Homo sapiens) (UniProt P25103); experiment: NK1 Eurofins-Cerep binding assay; conditions: Compound concentration 10.0 uM
[13] = target: Neurotensin receptor type 1 (Homo sapiens) (UniProt P30989); experiment: Activity against NT1/H in the Eurofins SafetyScreen44 (BI) by Radioactive Assay (Old_Cerep_27); conditions: Compound concentration 10.0 uM
[14] = target: P2Y purinoceptor 1 (Rattus norvegicus) (UniProt P49651); experiment: Activity against P2Y/RA in the Eurofins SafetyScreen44 (BI) by Radioactive Assay (Old_Cerep_30); conditions: Compound concentration 10.0 uM
Chain of P2Y purinoceptor 1 (Rattus norvegicus) (P49651 whole entry): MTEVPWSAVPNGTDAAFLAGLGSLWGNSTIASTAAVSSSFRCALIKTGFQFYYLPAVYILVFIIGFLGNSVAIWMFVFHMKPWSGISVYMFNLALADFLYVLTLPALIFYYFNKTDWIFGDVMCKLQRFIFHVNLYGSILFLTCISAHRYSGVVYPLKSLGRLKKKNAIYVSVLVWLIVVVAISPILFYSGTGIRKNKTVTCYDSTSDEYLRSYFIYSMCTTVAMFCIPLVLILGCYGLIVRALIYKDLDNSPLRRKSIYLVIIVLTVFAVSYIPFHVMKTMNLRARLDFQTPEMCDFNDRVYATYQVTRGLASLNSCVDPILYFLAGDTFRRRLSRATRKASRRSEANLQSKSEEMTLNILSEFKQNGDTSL

[15] = target: Prostacyclin receptor (Homo sapiens) (UniProt P43119); experiment: Activity against PGI2/H in the Eurofins SafetyScreen44 (BI) by Radioactive Assay (Old_Cerep_34); conditions: Compound concentration 10.0 uM
Chain of Prostacyclin receptor (Homo sapiens) (P43119 whole entry): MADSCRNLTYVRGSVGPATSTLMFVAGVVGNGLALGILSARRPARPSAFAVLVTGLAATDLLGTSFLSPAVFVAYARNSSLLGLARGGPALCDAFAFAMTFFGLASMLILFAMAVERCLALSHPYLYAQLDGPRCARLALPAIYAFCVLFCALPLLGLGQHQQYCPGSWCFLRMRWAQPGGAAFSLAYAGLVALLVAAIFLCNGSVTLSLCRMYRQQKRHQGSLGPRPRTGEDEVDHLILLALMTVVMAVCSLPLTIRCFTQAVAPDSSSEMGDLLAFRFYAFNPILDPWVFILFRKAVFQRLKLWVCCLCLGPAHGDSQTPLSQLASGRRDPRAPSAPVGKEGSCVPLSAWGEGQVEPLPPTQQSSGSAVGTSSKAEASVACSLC

[16] = target: Somatostatin receptor type 5 (Mus musculus) (UniProt O08858); experiment: Activity against SOMATOS/M in the Eurofins SafetyScreen44 (BI) by Radioactive Assay (Old_Cerep_36); conditions: Compound concentration 10.0 uM
[17] = target: Tumor necrosis factor receptor superfamily member 1A (Homo sapiens) (UniProt P19438); experiment: TNF-alpha Eurofins-Cerep binding assay; conditions: Compound concentration 10.0 uM
[18] = species: Rattus norvegicus; experiment: BZD (central) Eurofins-Cerep binding assay; conditions: Compound concentration 10.0 uM
[19] = target: Neuropeptide Y receptor type 2 (Homo sapiens) (UniProt P49146); experiment: Y2 Eurofins-Cerep binding assay; design: ligand concentration 0.015 nM; conditions: Compound concentration 10.0 uM
[20] = target: 5-hydroxytryptamine receptor 1B (Rattus norvegicus) (UniProt P28564); experiment: Inhibitor of 5HT1B/R in the Eurofins SafetyScreen44 (BI) by Radioactive Assay (Old_Cerep_1); conditions: Compound concentration 10.0 uM
Chain of 5-hydroxytryptamine receptor 1B (Rattus norvegicus) (P28564 whole entry): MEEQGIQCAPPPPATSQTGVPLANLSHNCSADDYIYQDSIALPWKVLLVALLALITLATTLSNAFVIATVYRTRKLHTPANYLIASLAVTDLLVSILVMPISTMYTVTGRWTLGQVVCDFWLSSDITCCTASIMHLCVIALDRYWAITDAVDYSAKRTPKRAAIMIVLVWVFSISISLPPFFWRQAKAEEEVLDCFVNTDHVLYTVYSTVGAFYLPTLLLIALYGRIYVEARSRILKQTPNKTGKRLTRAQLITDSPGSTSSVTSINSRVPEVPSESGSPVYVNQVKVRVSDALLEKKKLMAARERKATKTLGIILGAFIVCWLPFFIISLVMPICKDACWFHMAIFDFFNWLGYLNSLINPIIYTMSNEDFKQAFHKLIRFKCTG

[21] = target: 5-hydroxytryptamine receptor 2C (Homo sapiens) (UniProt P28335); experiment: Activity against 5HT2C/H in the Eurofins SafetyScreen44 (BI) (Cerep_1003); conditions: Compound concentration 10.0 uM
[22] = target: GABA-A receptor; anion channel (Rattus norvegicus) (UniProt O09028+P15431+P18506+P18508+P19969+P20236+P23574+P23576+P28471+P28473+P30191+P62813+P63079+P63138+Q91ZM7+Q9ES14); experiment: Activity against BZD/PERIPH/R in the Eurofins SafetyScreen44 (BI) by Radioactive Assay (Old_Cerep_10); format: protein-complex assay
[23] = target: L-type calcium channel (Cav1.2, alpha-1C), CA+/VERSI/R (Rattus norvegicus, UniProt P22002); experiment: Inhibitor of CA+/VERSI/R in the Eurofins SafetyScreen44 (BI) by Radioactive Assay (Old_Cerep_11); design: scale not given: the % may be the effect or the level left; conditions: compound concentration 10 uM, read-out: % Ctrl
[24] = target: C-C chemokine receptor type 1 (Homo sapiens) (UniProt P32246); experiment: Activity against CCR1/H in the Eurofins SafetyScreen44 (BI) (Old_Cerep_14); conditions: Compound concentration 10.0 uM
Chain of C-C chemokine receptor type 1 (Homo sapiens) (P32246 whole entry): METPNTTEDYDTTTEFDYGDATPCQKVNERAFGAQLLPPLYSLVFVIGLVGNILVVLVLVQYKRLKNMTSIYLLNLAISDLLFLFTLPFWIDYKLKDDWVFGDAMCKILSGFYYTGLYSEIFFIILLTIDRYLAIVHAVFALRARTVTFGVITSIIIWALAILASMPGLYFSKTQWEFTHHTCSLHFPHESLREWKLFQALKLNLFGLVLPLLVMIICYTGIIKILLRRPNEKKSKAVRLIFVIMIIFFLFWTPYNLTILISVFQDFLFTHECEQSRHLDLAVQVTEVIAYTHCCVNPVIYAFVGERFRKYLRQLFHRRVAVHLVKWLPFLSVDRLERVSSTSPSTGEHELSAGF

[25] = species: Rattus norvegicus; experiment: Cl-channel (GABA-gated) Eurofins-Cerep binding assay; design: ligand concentration 3 nM; conditions: Compound concentration 10.0 uM
[26] = target: D(1B) dopamine receptor (Homo sapiens) (UniProt P21918); experiment: Activity against D5/H in the Eurofins SafetyScreen44 (BI) by Radioactive Assay (Old_Cerep_17); conditions: Compound concentration 10.0 uM
[27] = target: Galanin receptor type 1 (Homo sapiens) (UniProt P47211); experiment: Activity against GAL1/H in the Eurofins SafetyScreen44 (BI) by Radioactive Assay (Old_Cerep_21); conditions: Compound concentration 10.0 uM
Chain of Galanin receptor type 1 (Homo sapiens) (P47211 whole entry): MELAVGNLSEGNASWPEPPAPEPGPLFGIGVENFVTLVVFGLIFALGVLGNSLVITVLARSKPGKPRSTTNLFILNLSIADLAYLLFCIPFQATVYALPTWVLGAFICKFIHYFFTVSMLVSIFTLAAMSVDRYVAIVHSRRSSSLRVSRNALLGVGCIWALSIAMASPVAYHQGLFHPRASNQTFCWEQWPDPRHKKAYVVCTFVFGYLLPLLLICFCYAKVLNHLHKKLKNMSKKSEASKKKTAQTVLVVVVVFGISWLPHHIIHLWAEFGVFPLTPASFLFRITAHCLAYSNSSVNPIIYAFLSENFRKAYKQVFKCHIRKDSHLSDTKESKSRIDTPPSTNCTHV

[28] = target: Galanin receptor type 2 (Homo sapiens) (UniProt O43603); experiment: Inhibitor of GAL2/H in the Eurofins SafetyScreen44 (BI) by Radioactive Assay (Old_Cerep_22); conditions: Compound concentration 10.0 uM
[29] = target: Small conductance calcium-activated potassium channel protein 1 (Rattus norvegicus) (UniProt P70606); experiment: Inhibitor of K+/CA+/R in the Eurofins SafetyScreen44 (BI) by Radioactive Assay (Old_Cerep_23); conditions: Compound concentration 10.0 uM
[30] = target: 5-hydroxytryptamine receptor 1B (Homo sapiens) (UniProt P28222); experiment: 5-HT1B Eurofins-Cerep binding assay; design: ligand concentration 1 nM; conditions: Compound concentration 10.0 uM
Chain of 5-hydroxytryptamine receptor 1B (Homo sapiens) (P28222 whole entry): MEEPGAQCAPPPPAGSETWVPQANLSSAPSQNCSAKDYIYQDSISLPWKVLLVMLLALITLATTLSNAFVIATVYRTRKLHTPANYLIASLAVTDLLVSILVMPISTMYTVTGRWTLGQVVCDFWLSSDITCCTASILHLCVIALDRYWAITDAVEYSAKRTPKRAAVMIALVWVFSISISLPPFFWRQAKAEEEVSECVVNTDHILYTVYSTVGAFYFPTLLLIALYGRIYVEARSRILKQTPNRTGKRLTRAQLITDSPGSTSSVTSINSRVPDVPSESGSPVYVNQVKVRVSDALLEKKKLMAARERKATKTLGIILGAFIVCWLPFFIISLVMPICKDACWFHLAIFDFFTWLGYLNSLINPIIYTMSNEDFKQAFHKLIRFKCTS

[31] = target: Cannabinoid receptor 1 (Homo sapiens) (UniProt P21554); experiment: CB1 Eurofins-Cerep binding assay; conditions: Compound concentration 10.0 uM
[32] = target: Prostaglandin G/H synthase 2 (Homo sapiens) (UniProt P35354); experiment: Inhibitor of COX-2 in the Eurofins Cerep SafetyScreen44 (BI) by Fluorimetry (Cerep_4186); conditions: Compound concentration 10.0 uM
[33] = target: Kappa-type opioid receptor (Homo sapiens) (UniProt P41145); experiment: kappa (KOP) Eurofins-Cerep binding assay; conditions: Compound concentration 10.0 uM
[34] = target: Cannabinoid receptor 2 (Homo sapiens) (UniProt P34972); experiment: Activity against CB2/PERIPH/H in the Eurofins Cerep SafetyScreen44 (BI) by Radioactive Assay (Cerep_37); conditions: Compound concentration 10.0 uM
[35] = target: hERG (KCNH2) (Homo sapiens, UniProt Q12809); experiment: Inhibitor of HERG_DOFETILIDE in the Eurofins Cerep SafetyScreen44 (BI) by Scintillation counting (Cerep_4094); design: scale not given: the % may be the effect or the level left; conditions: probe [3H]dofetilide, compound concentration 10 uM, read-out: % Ctrl
[36] = target: Tyrosine-protein kinase Lck (Homo sapiens) (UniProt P06239); experiment: Inhibitor of LCK_CE in the Eurofins Cerep SafetyScreen44 (BI) by lanthanide chelation excitation (Cerep_2906); conditions: Compound concentration 10.0 uM
[37] = target: 3',5'-cyclic-AMP phosphodiesterase 4D (Homo sapiens) (UniProt Q08499); experiment: Inhibitor of PDE4D2 in the Eurofins Cerep SafetyScreen44 (BI) by Scintillation counting (Cerep_4077); conditions: Compound concentration 10.0 uM
Chain of 3',5'-cyclic-AMP phosphodiesterase 4D (Homo sapiens) (Q08499 whole entry): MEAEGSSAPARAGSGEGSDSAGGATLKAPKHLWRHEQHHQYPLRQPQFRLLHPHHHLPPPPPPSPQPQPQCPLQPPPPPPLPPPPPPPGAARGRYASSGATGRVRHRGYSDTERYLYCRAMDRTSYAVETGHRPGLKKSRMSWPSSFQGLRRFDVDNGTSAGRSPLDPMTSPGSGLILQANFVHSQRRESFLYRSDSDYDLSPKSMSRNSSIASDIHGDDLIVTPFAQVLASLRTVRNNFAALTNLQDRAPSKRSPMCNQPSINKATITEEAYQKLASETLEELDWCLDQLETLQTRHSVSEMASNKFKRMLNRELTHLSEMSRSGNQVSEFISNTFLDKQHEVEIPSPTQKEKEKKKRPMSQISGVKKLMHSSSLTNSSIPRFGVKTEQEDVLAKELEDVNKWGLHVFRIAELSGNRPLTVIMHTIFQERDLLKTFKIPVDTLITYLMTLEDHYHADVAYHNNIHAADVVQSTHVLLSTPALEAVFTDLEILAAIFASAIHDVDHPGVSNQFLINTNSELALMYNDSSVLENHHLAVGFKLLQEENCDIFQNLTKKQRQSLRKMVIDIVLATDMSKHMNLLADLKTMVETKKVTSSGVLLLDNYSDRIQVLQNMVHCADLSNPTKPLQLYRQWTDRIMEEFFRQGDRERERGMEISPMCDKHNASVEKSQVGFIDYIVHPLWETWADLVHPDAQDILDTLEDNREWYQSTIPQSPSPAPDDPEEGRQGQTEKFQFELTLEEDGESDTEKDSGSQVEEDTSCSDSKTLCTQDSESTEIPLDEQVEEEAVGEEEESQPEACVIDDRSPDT

Chain of Myeloblastin (P24158 whole entry): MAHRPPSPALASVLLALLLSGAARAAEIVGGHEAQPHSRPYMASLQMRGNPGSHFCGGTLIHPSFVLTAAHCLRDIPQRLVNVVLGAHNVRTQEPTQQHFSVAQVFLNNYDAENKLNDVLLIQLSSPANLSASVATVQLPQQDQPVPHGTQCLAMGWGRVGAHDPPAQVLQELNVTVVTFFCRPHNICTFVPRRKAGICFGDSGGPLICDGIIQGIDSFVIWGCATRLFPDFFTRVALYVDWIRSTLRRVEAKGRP

IC50 [1]: 12 nM (active)
IC50 [2]: 367 nM (not active)
IC50 [3]: > 10000 nM (not active)
residual activity ([5]; Compound concentration 10.0 uM): 107%
residual activity ([5]; Compound concentration 30.0 uM): 102%
residual activity ([6]; Compound concentration 10.0 uM): 92%
residual activity ([6]; Compound concentration 30.0 uM): 80%
residual activity [9]: 95%
residual activity [10]: 92%
residual activity [11]: 105%
residual activity [12]: 115%
residual activity [18]: 111%
residual activity [19]: 113%
residual activity [25]: 90%
Compound: CC(C)(O)CNC(=O)N1C(=O)N(c2cccc(C(F)(F)F)c2)C2=C(C(=O)CC2)[C@H]1c1ccc(C#N)cc1
residual activity [4]: 93%
residual activity ([7]; Compound concentration 10.0 uM): 97%
residual activity ([7]; Compound concentration 30.0 uM): 103%
residual activity ([8]; Compound concentration 10.0 uM): 93%
residual activity ([8]; Compound concentration 30.0 uM): 98%
residual activity [13]: 114%
residual activity [14]: 88%
residual activity [15]: 123%
residual activity [16]: 114%
residual activity [17]: 115%
residual activity [20]: 136%
residual activity [21]: 94%
residual activity ([22]; Compound concentration 10.0 uM): 100%
residual activity ([22]; Compound concentration 30.0 uM): 93%
activity at 10 µM [23]: 102% (not active)
residual activity [24]: 89%
residual activity [26]: 103%
residual activity [27]: 121%
residual activity [28]: 114%
residual activity [29]: 97%

residual activity [30]: 86%
residual activity [31]: 88%
residual activity [33]: 94%
Compound: CC(C)(O)CNC(=O)N1C(=O)N(c2cccc(C(F)(F)F)c2)C2=C(C(=O)CC2)[C@@H]1c1ccc(C#N)cc1
residual activity [32]: 101%
residual activity [34]: 83%
activity at 10 µM [35]: 96% (not active)
residual activity [36]: 92%
residual activity [37]: 114%
